For assay [1], the system named is Hedgehog target gene Gli1. In words: Expression of Hedgehog target gene Gli1 in NIH3T3 cells (quantitative RT-PCR). Type of assay: cell-based. The following applies: for Gli1 gene expression relative to CM only / Hedgehog signaling (Gli1 gene expression) compared to the control / gene expression of the Hedgehog target gene Gli1 / Hedgehog signaling (Gli1 gene expression): NIH3T3 cells; for Hedgehog signaling (Gli1 gene expression) compared to the control: without CM; for gene expression of the Hedgehog target gene Gli1: in CM, 5 μM and 10 μM; for gene expression of the Hedgehog target gene Gli1 / Hedgehog signaling (Gli1 gene expression): FIG. 7; for Hedgehog signaling (Gli1 gene expression): in the absence of CM. On the procedure:
The compounds described herein were tested on cell cultures to assess their effects on Hedgehog target genes PTCH and Gli1. Conditioned medium (CM) was collected from CAPAN-1 human pancreatic tumor cells grown to confluence in DMEM containing 10%0/fetal bovine serium (FBS) and contains Hh proteins that activate the Hh pathway in cells receiving the CM. After 7 days of incubation of confluent cells with the described medium, CM was collected, spun for 5 minutes at 1800 rpm to remove dead cells and debris, and then frozen at −80° C. For treating cells, CM was thawed and diluted 1:2 to 1:6 with DMEM containing 5% FBS. NIH3T3 cells, HepG2 and SUFU−/−MEF cells were cultured in 12-well plates with DMEM containing 10% FBS. The cells were then treated with DMEM containing 5% FBS or CM in the presence or absence of the compounds prepared in DMSO when they reach confluence. Quantitative RT-PCR was then performed according to the following approach. After 72 to 96 hours of the treatments, the cells were lysed and subjected to RNA extraction with RNease Plus Min kit (Qiagen). A portion of RNA from each well was subjected to Reverse Transcription (RT) using iScript Reverse Transcription Supermix (BioRad). QPCR was performed to test the expression of Hh target genes PTCH and Gli1 using IQ SYBR Green Supermix (BioRad).

The subject of assay [2] is connective tissue growth factor (CTGF). In words: TGFβ1 induced expression of CTGF in NIH3T3 cells (Q-RT-PCR). The class given is cell-based. The following applies: 10 uM, recombinant human TGFβ1 at 20 ng/ml, 48 hours, FIG. 8. As for the experimental part: NIH3T3 cells were treated with recombinant human TGFβ1 at 20 ng/ml in the absence or presence of compound 21 at 10 uM. After 48 hours, RNA was extracted and analyzed by Q-RT-PCR for the expression of connective tissue growth factor (CTGF), a tumorigenic gene.

The mark [3] stands for this setting: 10 μM, in the presence of CM, FIG. 6, result in words.

In the case of `C[C@]12CC[C@H]3[C@@H](CC=C4C[C@@H](O)CC[C@@]43C)[C@@H]1CC[C@@H]2[C@@](C)(O)CCc1ccc(F)cc1` [Oxy45, reference compound], the “Gli1 gene expression relative to CM only” value in assay [1] (5 μM, in the presence of conditioned medium (CM), FIG. 6) is reported as “more than 2 fold”; in assay [1] (10 μM, in the presence of conditioned medium (CM), FIG. 6), “more than 2 fold”. Further, the “Hedgehog signaling (Gli1 gene expression) compared to the control” value (from here on “Hedgehog signaling … compared to the control”) in assay [1] (10 μM, FIG. 6) was “stimulated Hedgehog signaling”.
For `C[C@]12CC[C@H]3[C@@H](CC=C4C[C@@H](O)CC[C@@]43C)[C@@H]1CC[C@@H]2[C@](C)(O)CCc1cccnc1` [compound 21, (3S,8S,9S,10R,13S,14S,17S)-17-((R)-2-hydroxy-4-(pyridin-3-yl)butan-2-yl)-10,13-dimethyl-2,3,4,7,8,9,10,11,12,13,14,15,16,17-tetradecahydro-1H-cyclopenta[a]phenanthren-3-ol], in assay [2], the “TGFβ1 induced expression of CTGF” value is given as “inhibited”. For the same compound, in assay [1], the “gene expression of the Hedgehog target gene Gli1” value is “decreased” and the “Hedgehog signaling (Gli1 gene expression)” value is “did not”.
`C[C@]12CC[C@H]3[C@@H](CC=C4C[C@@H](O)CC[C@@]43C)[C@@H]1CC[C@@H]2[C@@](C)(O)CCc1cccnc1` [Oxy43, reference compound]: in assay [1], the “gene expression of the Hedgehog target gene Gli1” value is “greatly increased” and the “Hedgehog signaling (Gli1 gene expression)” value is on record as “stimulated Hedgehog signaling”.
With `C[C@]12CC[C@H]3[C@@H](CC=C4C[C@@H](O)CC[C@@]43C)[C@@H]1CC[C@@H]2[C@](C)(O)CCc1ccc(F)cc1` [compound 4, (3S,8S,9S,10R,13S,14S,17S)-17-((R)-4-(4-fluorophenyl)-2-hydroxybutan-2-yl)-10,13-dimethyl-2,3,4,7,89,10,11,12,13,14,15,16,17-tetradecahydro-1H-cyclopenta[a]phenanthren-3-ol], in assay [1] (setting [3]), the “Gli1 gene expression relative to CM only” value was “greatly decreased”. Besides, the “Hedgehog signaling … compared to the control” value in assay [1] (10 μM, FIG. 6) is given as “did not show this effect”.
For the compound `C[C@]12CC[C@H](O)C[C@@H]1CC[C@@H]1[C@@H]2CC[C@@]2(C)[C@H]1CC[C@@H]2[C@](C)(O)CCc1ccc(F)cc1` [compound 6, (3S,5S,8R,9S,10S,13S,14S,17S)-17-((R)-4-(4-fluorophenyl)-2-hydroxybutan-2-yl)-10,13-dimethylhexadecahydro-1H-cyclopenta[a]phenanthren-3-ol], the “Gli1 gene expression relative to CM only” value in assay [1] (5 μM, in the presence of CM, FIG. 6, result in words) is reported as “greatly decreased”; in assay [1] (setting [3]) it was “greatly decreased”. In assay [1] (10 μM, FIG. 6), the “Hedgehog signaling … compared to the control” value is “did not show this effect”. Besides, the “inhibition of Gli1 expression vs. compound 4” value in assay [1] (comparison with compound 4 (C5-C6 double bond, C20 R-stereochemistry), FIG. 1) is “increased”. For the same compound, the “inhibition of Gli1 expression vs. compound 18” value in assay [1] (comparison with compound 18 (C20 S-stereochemistry, C5-C6 single bond), FIGS. 1 and 3) is “increased”.

The values above are taken from patent publication US10869875B2, “Oxysterols and Hedgehog signaling” (MAX BIOPHARMA, INC., priority 2015, dated 2020).
